Among the data in BindingDB's records for PubMed 1836757 (University of Heidelberg, 1991) are Ki values, retold here.

The target of the assay is 5-hydroxytryptamine receptor 1A/1B/1D/2C (Homo sapiens, UniProt P08908+P28221+P28222+P28335).

Where only a bound is given, the exact number is not on record here.

Chain of 5-hydroxytryptamine receptor 1A/1B/1D/2C (P08908 whole entry): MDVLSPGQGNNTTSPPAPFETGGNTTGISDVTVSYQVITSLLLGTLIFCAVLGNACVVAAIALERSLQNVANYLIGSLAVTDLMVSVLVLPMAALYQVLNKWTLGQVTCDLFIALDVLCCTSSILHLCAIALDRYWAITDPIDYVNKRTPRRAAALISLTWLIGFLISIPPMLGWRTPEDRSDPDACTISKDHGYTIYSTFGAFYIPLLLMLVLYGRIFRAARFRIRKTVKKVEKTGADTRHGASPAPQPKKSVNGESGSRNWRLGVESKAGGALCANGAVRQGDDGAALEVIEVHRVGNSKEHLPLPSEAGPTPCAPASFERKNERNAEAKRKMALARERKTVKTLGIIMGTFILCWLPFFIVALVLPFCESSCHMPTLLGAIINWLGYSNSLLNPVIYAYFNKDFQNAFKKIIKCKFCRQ
Chain of 5-hydroxytryptamine receptor 1A/1B/1D/2C (P28222 whole entry): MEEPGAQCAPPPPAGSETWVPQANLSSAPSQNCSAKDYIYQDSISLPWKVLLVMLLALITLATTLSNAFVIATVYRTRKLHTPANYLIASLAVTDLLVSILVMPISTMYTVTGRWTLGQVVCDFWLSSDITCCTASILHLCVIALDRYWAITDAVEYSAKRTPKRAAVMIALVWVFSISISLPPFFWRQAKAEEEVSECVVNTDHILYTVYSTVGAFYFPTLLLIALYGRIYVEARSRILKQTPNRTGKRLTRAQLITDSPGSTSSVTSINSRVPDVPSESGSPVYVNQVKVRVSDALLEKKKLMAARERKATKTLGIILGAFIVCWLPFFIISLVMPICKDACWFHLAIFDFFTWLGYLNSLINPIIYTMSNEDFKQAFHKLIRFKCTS
Chain of 5-hydroxytryptamine receptor 1A/1B/1D/2C (P28221 whole entry): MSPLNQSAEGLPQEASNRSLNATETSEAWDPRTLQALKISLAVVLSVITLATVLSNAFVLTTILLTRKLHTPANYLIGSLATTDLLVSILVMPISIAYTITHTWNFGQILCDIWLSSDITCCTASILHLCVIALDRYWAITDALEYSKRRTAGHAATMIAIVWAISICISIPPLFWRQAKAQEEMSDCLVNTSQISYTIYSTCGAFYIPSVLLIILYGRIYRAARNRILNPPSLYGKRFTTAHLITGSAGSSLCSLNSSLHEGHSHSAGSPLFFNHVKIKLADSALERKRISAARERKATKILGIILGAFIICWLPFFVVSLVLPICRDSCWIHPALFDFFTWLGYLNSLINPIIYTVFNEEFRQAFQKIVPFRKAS
Chain of 5-hydroxytryptamine receptor 1A/1B/1D/2C (P28335 whole entry): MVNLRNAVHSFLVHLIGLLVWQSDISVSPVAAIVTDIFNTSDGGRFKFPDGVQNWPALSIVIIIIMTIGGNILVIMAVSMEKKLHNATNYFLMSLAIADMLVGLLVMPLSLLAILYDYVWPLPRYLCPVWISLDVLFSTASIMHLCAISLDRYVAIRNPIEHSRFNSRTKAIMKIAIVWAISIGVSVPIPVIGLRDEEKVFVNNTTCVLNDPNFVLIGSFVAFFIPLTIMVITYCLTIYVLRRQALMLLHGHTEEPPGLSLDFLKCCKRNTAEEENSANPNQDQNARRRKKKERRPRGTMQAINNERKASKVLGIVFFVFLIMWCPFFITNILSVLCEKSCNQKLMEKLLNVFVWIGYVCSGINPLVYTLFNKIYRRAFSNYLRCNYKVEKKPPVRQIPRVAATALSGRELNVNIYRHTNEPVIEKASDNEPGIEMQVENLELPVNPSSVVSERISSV

Turning to `CN1C2CCC1CC(OC(=O)c1c[nH]c3ccccc13)C2` (configuration not stated), the inhibition constant Ki was over 10000 nM.
`CC[C@@H](CO)NC(=O)[C@@H]1C=C2c3cccc4c3c(cn4C)C[C@H]2N(C)C1`: affinity was put at a Ki of 436 nM.
